Measured values: US10240133B2, “ERK-derived peptides and uses thereof” (Yeda Research and Development Co. Ltd., priority 2013, dated 2019)

What was measured:
ERK1/2 = test: Nuclear translocation of ERK (fluorescence microscopy, subcellular fractionation); type: cell-based
Protocol: FIGS. 1A-1F illustrate that EPE peptide prevents nuclear translocation of ERK1. A2352 (A), MDA-MB-231 (B) HeLa (C), T47D (D), NHEM-AD (E) and HB2 (F) cells were serum-starved, pretreated with the EPE peptides, Scr peptide (10 μM, 2 h) DMSO and then either stimulated with TPA (250 nM, 15 min) or left untreated (NS) as control. The cells were stained with αgERK1/2 Ab and DAPI. Scale-bar—15 μm.
FIGS. 12A-12D illustrate that the EPE peptide inhibits the nuclear translocation of ERK1/2. Serum-starved (0.1% FCS, 16 hr) A2352 (FIG. 12A), HeLa (FIG. 12B), MDA-MB-231 (FIG. 12C), or LOXMVI (FIG. 12D) cells were pretreated with EPE or scrambled peptides (10 μM, 2 hr). Cells were then stimulated with EGF (50 ng/ml) or left untreated, and then harvested. Subcellular fractionation of cytoplasm and nucleus was performed as below, and fractions were subjected to Western blot analysis with the indicated Abs. Subcellular Fractionation was performed as follows: Harvested cells were resuspended in 200 μl of buffer H containing 0.1% Nonidet P-40. The lysates were mixed vigorously and centrifuged immediately to yield supernatants containing the cytosolic fraction. Nuclear proteins were extracted by resuspending the nuclear pellets in 200 μl of extraction buffer, waiting on ice for 5 min, brief sonication (2×5 sec, 40 W, 4° C.), vigorous mixing, and centrifugation. Both cytosolic and nuclear fractions were subjected to Western blotting.
A2185 (A) and A2352 (B) B-Raf melanoma cells were serum-starved (16 hours, 0.1% FBS), and then either pretreated with the EPE peptides (10 μM, 2 hours) or left untreated. Then, the cells were stimulated with TPA ([…], 20 min), or left untreated (NS) DMSO as control. The cells were stained with either anti ERK1 (Santa Cruz, C16) or anti ERK2 (C14, Santa Cruz) Abs and DAPI. (C) Quantification of the number of cell in which ERK1 or ERK2 were mostly (>80%) localized in the nucleus was performed by counting 5 fields containing 100 cells per field.
FIGS. 15A-15B illustrate that the EPE peptide prevents nuclear accumulation/translocation of ERK1/2 in PLX4032-resistant melanoma cells. A2352 that were made resistant to PLX4032 (as described under Material and Methods) and A4132 PLX4032 resistant melanoma cell from patient were serum-starved (16 hours, 0.1%), pretreated with the EPE or scrambled peptide (10 μM, 2 hours) and then either stimulated with TPA (100 nM, 20 min) or left untreated (NT) as control. The cells were stained with αgERK1/2 Ab and DAPI.
Cells were fixed in 3% paraformaldehyde in PBS (20 min, 23° C.), and then permeabilized and blocked with 0.2% Triton X-100 in PBS-BSA (2%) for 20 min at 23° C. The fixed cells were sequentially incubated with appropriated Abs, (diluted in 10 μg/ml BSA/PBS) for 1 h, followed by either Cy-2 or rhodamine-conjugated secondary Abs and DAPI (diluted in BSA/PBS, 1:200) for 1 h. To follow the subcellular localization of the biotin-conjugated peptides, cells were incubated with Avidin-FITC (diluted in BSA/PBS 1:400) and DAPI. Slides were analyzed and photographed by a fluorescent microscope (Nikon, Japan, 600× magnification).

B-Raf melanoma cells = test: Morphology assay (light microscopy); type: cell-based; conditions: 10 μM
Protocol: (§1) FIGS. 5A-5D illustrate that the EPE peptide leads to apoptosis of B-Raf mutant cancer cells. (A) The EPE peptide affects the morphology of treated cells. The indicated cells were treated with either the EPE or Scr peptides, DMSO, or taxol for 72 h, and photographed by a light microscope. (B) The EPE peptide induces apoptosis in melanoma cells detected by TUNEL. The indicated cell lines were treated as in A for 24 h. Apoptosis was detected by TUNEL staining. Images were obtained by florescence microscope. (C) Quantification of B. The bar-graph represents percent of apoptotic cells calculated in 10 different fields. (D) The EPE peptide induces apoptosis of melanoma cells detected by PARP cleavage. The indicated cell lines were treated as in (A) for 24 h. Cell extracts were subjected to Western blotting with αPARP Ab.
(§2) Cells were seeded on glass cover slips in a 12-wells plate at 25% confluence with medium containing 1% of FCS. Peptides (EPE or Scr), DMSO, or U0126 in a final concentration of 10 μM, were added after 4 h (considered as time “0”). TUNEL staining was performed at 24 h after the treatment according to manufacturer instruction (Roche Applied Science, Nutley, N.J., USA). Briefly, the medium was removed and cells were fixed with 3% of paraformaldehyde (1.5 h, 23° C.). Cells were rinsed twice with PBS and permeabilized with 0.1% Triton X-100 and 0.1% sodium citrate for 2 min on ice. Cells were rinsed twice with PBS and 28 μl of TUNEL reaction mixture (25 μl of TUNEL label, 2.5 μl of TUNEL enzyme and 0.1 mg/ml of DAPI) was added directly on top of the slide, cells were incubated for 16 h in humid box at 37° C. Cover slips were rinsed three times with PBS and mounted on microscope slides. The slides were dried and then subjected to image acquisition by a florescence microscope. For morphology assay, the cells were seeded at approximately 25% confluence in 6 cm plates with medium containing 1% FCS. Peptides (EPE and Scr) or DMSO or U0126 in a final concentration of 10 μM, were added after 4 h (considered to be time 0), 24 h and 48 h. […]

most cell lines examined = test: Morphology assay (light microscopy); type: cell-based; conditions: 10 μM
Protocol: as §1, §2

ERK = test: Immunohistochemistry of ERK localization in xenograft tumors; type: in vivo, mice; conditions: MDA-MB-231 and LOXIMVI xenografts, anti ERK Ab
Description: FIGS. 10A-10B illustrate that the EPE peptide causes cytoplasmatic localization of ERK in xenografts. FIG. 10A: Photographs illustrating that EPE and Scr peptide as well as DMSO-treated MDA-MB-231 and LOXIMVI xenografts were immunostained with αgERK Ab. FIG. 10B presents bar-graphs representing number of cells with cytoplasmatic/nuclear ERK staining calculated in 10 random microscopic fields.

## GQLNHILGILGEPEQED (Synthetic peptide (EPE)) [EPE peptide, NTS-derived peptide with phosphomimetic EPE motif]
ERK1/2
  inhibitory effect on nuclear translocation of ERK, compared among SPS, EPE and APA peptides: stronger than that of the other two
ERK1/2; A2185 and A2352 B-Raf melanoma cells
  inhibition of ERK1 versus ERK2 translocation: No significant differences between the inhibition of ERK1 and ERK2
ERK1/2; A2352, HeLa, MDA-MB-231, LOXMVI, 10 μM, 2 hr, EGF
  nuclear translocation of ERK1/2 by subcellular fractionation: same trend of inhibition
ERK1/2; PLX4032-resistant A2352 and A4132 cells, 10 μM, 2 hours, TPA
  amount of nuclear ERK1/2 in resistant melanoma cells: reduced the amount of nuclear ERK1/2 both before and after stimulation
B-Raf melanoma cells
  cell morphology: inducing cell-break already 24 hours after treatment
Most cell lines examined
  cell morphology: no effect
ERK
  ERK localization in xenograft tumor sections: localized almost exclusively in the cytoplasm
